Experiment [1] concerns HCT-116 human colon cancer cells. In words: MTT growth inhibition, HCT-116. It is filed as cell-based. The conditions noted are these: 24 h treatment, 0 to 80 µM. The protocol: (§1) Cell growth inhibition was determined by a MTT colorimetric assay. Human colon cancer cells HCT-116, human lung cancer cells H-1299, human colon fibroblast cells CCD-18Co, and human lung fibroblast cells IMR-90 were plated in 96-well microtiter plates with 3000 cells/well and allowed to attach for 24 h at 37°C. […] After the cells were cultured for 24 h, the medium was aspirated and cells were treated with 200 µL fresh medium containing 2.41 mmol/L MTT. […] The reading reflected the number of viable cells and was expressed as a percentage of viable cells in the control. Both HCT-116 and H-1299 cells were cultured in McCoy’s 5A medium. CCD-18Co and IMR-90 cells were cultured in Eagle’s modified essential medium (EMEM). All of the above media were supplemented with 10% fetal bovine serum, 1% penicillin/streptomycin, and 1% glutamine, and the cells were kept in a 37°C incubator with 95% humidity and 5% CO2.

Experiment [2] concerns H-1299 human lung cancer cells. In words: MTT growth inhibition, H-1299. The conditions noted are these: 24 h treatment, 0 to 80 µM. It is filed as cell-based. As for the experimental part: as §1
Experiment [3] deals with CCD-18Co human normal fibroblast colon cells. In words: MTT cytotoxicity, normal colon cells CCD-18Co. The format is cell-based. The conditions noted are these: 24 h treatment, toxicity to normal cells. As for the experimental part: as §1
Experiment [4] deals with IMR-90 human normal lung cells. Briefly: MTT cytotoxicity, normal lung cells IMR-90. The format is cell-based. The conditions noted are these: 24 h treatment, toxicity to normal cells. The protocol: as §1
A further experiment has as its system HCT-116 cells. Briefly: TUNEL apoptosis assay, HCT-116. The format is cell-based, human. To be noted: 20 or 40 µM, versus DMSO. As for the experimental part:
(§2) HCT-116 and H1299 cells were seeded in 6-well plates at 1.10^5 cells/well and incubated at 37°C in 5% CO2 incubator. After 24 hours, fresh media supplemented with DMSO (control), [6]-shogaol, M2, M6, or M13 metabolites (20 µM or 40 µM) were added to the wells. After 6 or 24 hours incubation at 37°C in 5% CO2 incubator, cells were washed and pre-treated for 15 min at room temperature with a solution of 20 µg/ml proteinase K. Cells were then washed twice with phosphate buffer saline pH 7.4 (PBS) and fixed for 10 min at room temperature using 10% neutral formaldehyde solution. After 2 washes in ddH2O, cells were resuspended in 100 µL ddH2O and applied on silanized microscope slides. Slides were incubated overnight at 37°C, and washed twice with PBS. TUNEL assay was then carried out according to the manufacturer’s protocol. Cells were observed under 400X power using a Zeiss microscope A1 (Thornwood, NY). 10 fields per slide were evaluated, and TUNEL+ cells (with brown coloration in the nucleus) were expressed as a percentage of the total number of cells contained in a field.

Another experiment deals with H-1299 cells. In words: TUNEL apoptosis assay, H-1299. It is filed as cell-based, human. The conditions noted are these: H-1299, 24 hours of incubation, 20 or 40 µM, versus DMSO; M2 not significant at 20 µM. As for the experimental part:
as §2

Setting [5] is: HCT-116, 24 hours of incubation.

As usually defined, the IC50 is the concentration that gives 50% inhibition.

Turning to `CCCCCC(CC(O)CCc1ccc(O)c(OC)c1)SCC(N)C(=O)O` (stereo not drawn) [M1, 5-cysteinyl-M6], the 50% inhibitory concentration (IC50) in experiment [1] is over 100 µM; in experiment [2] (Homo sapiens, NCI-H1299, 24 h), over 100 µM; in experiment [3] it was over 100 µM; in experiment [4], over 100 µM.
In the case of `CCCCCC(CC(=O)CCc1ccc(O)c(OC)c1)SCC(N)C(=O)O` (stereo not drawn) [M2, 5-cysteinyl-[6]-shogaol], the concentration for half-maximal inhibition (IC50) in experiment [1] turned out to be 24.4 µM; in experiment [2], 24.4 µM; in experiment [2] (Homo sapiens, NCI-H1299, 24 h) it was 25.8 µM; in experiment [3], 99.2 µM; in experiment [4], 98.3 µM. Also, the “induction of apoptosis (TUNEL positive cells)” value (“induction of apoptosis” below) with HCT-116 cells (HCT-116, 6 hours of incubation) is reported as “significantly higher levels of apoptosis”; in the experiment with HCT-116 cells (setting [5]), “Significant apoptosis”; in the experiment on H-1299 cells it was “Significant apoptosis”.
On to `CCCCCC(CC(O)CCc1ccc(O)c(OC)c1)SCC(NC(C)=O)C(=O)O` (stereo not drawn) [M4, 5-N-acetylcysteinyl-M6], for which the concentration for half-maximal inhibition (IC50) in experiment [1] is over 100 µM; in experiment [2] (Homo sapiens, NCI-H1299, 24 h) it was over 100 µM; in experiment [3] it was over 100 µM; in experiment [4] it was over 100 µM.
Consider `CCCCCC(CC(=O)CCc1ccc(O)c(OC)c1)SC[C@H](NC(C)=O)C(=O)O` (stereo partly drawn) [M5, 5-N-acetylcysteinyl-[6]-shogaol], for which the IC50 in experiment [1] was 54.3 µM; in experiment [2] it was 54.3 µM; in experiment [2] (Homo sapiens, NCI-H1299, 24 h), 72.6 µM; in experiment [3], over 100 µM; in experiment [4] it was over 100 µM.
`CCCCCC=CC(O)CCc1ccc(O)c(OC)c1` (stereo not drawn) [M6, 1-(4'-hydroxy-3'-methoxyphenyl)-4-decen-3-ol]: the half-maximal inhibitory concentration (IC50) in experiment [1] is 68.8 µM; in experiment [2] it was 68.8 µM; in experiment [2] (Homo sapiens, NCI-H1299, 24 h), 61.3 µM; in experiment [3], over 100 µM; in experiment [4], over 100 µM. For the same compound, the “induction of apoptosis” value in the experiment with HCT-116 cells (setting [5]) and in the experiment with H-1299 cells was “did not display any apoptotic effect” each time.
In the case of `CCCCCC(CC(=O)CCc1ccc(O)c(OC)c1)OC` (stereo not drawn) [M7, 5-methoxy-1-(4'-hydroxy-3'-methoxyphenyl)-decan-3-one], the IC50 in experiment [1] was over 100 µM; in experiment [2] (Homo sapiens, NCI-H1299, 24 h), over 100 µM; in experiment [3], over 100 µM; in experiment [4], over 100 µM.
For `CCCCCCCC(=O)CCc1ccc(O)c(O)c1` [M8, 1-(3',4'-dihydroxyphenyl)-decan-3-one], the IC50 in experiment [1] is 58.8 µM; in experiment [2] (Homo sapiens, NCI-H1299, 24 h), over 100 µM; in experiment [3], over 100 µM; in experiment [4] it was over 100 µM.
On to `CCCCCCCC(O)CCc1ccc(O)c(OC)c1` (stereo not drawn) [M9, 1-(4'-hydroxy-3'-methoxyphenyl)-decan-3-ol], for which the half-inhibitory concentration (IC50) in experiment [1] is 82.2 µM; in experiment [2] (Homo sapiens, NCI-H1299, 24 h), 82.5 µM; in experiment [3], over 100 µM; in experiment [4], over 100 µM.
As to `CCCCCC(CC(=O)CCc1ccc(O)c(OC)c1)SC` (stereo not drawn) [M10, 5-methylthio-1-(4'-hydroxy-3'-methoxyphenyl)-decan-3-one], the IC50 in experiment [1] is 78.2 µM; in experiment [2] (Homo sapiens, NCI-H1299, 24 h) it was 60.6 µM; in experiment [3], over 100 µM; in experiment [4], over 100 µM.
On to `CCCCCCCC(=O)CCc1ccc(O)c(OC)c1` [M11, 1-(4'-hydroxy-3'-methoxyphenyl)-decan-3-one], for which the concentration for half-maximal inhibition (IC50) in experiment [1] is 84 µM; in experiment [2] (Homo sapiens, NCI-H1299, 24 h) it was 66.5 µM; in experiment [3], over 100 µM; in experiment [4] it was over 100 µM.
Turning to `CCCCCC(CC(O)CCc1ccc(O)c(OC)c1)SC` (stereo not drawn) [M12, 5-methylthio-1-(4'-Hydroxy-3'-methoxyphenyl)-decan-3-ol], the IC50 in experiment [1] is over 100 µM; in experiment [2] (Homo sapiens, NCI-H1299, 24 h), 69.9 µM; in experiment [3] it was over 100 µM; in experiment [4], over 100 µM.
As to `CCCCCC(CC(=O)CCc1ccc(O)c(OC)c1)SCC(NC(=O)CCC(N)C(=O)O)C(=O)NCC(=O)O` (stereo not drawn) [M13, 5-glutathiol-[6]-shogaol], the half-maximal inhibitory concentration (IC50) was 45.5 µM in experiment [1]; 47.8 µM in experiment [2] (Homo sapiens, NCI-H1299, 24 h); 75.5 µM in experiment [3]; 57.5 µM in experiment [4]. For the same compound, the “induction of apoptosis” value in the experiment on HCT-116 cells (HCT-116, 6 hours of incubation) is on record as “significantly higher levels of apoptosis”; in the experiment with HCT-116 cells (setting [5]), “Significant apoptosis”; with H-1299 cells, “Significant apoptosis”.
As for `CCCCC[C@@H](CC(=O)CCc1ccc(O)c(OC)c1)SC[C@H](NC(=O)CC[C@H](N)C(=O)O)C(=O)NCC(=O)O` [M13-1], the IC50 in experiment [1] was 71.2 µM; in experiment [2] (Homo sapiens, NCI-H1299, 24 h), 74.4 µM. In addition, the “induction of apoptosis” value in the experiment with HCT-116 cells (HCT-116, 6 hours of incubation) is “higher level of apoptosis”.
For `CCCCC[C@H](CC(=O)CCc1ccc(O)c(OC)c1)SC[C@H](NC(=O)CC[C@H](N)C(=O)O)C(=O)NCC(=O)O` [M13-2], in that order: 54.9 µM, 63.8 µM and “higher level of apoptosis”.
As for `CCCCC/C=C/C(=O)CCc1ccc(O)c(OC)c1` [[6]-shogaol], the IC50 in experiment [1] amounted to 18.2 µM; in experiment [2] (Homo sapiens, NCI-H1299, 24 h), 17.9 µM; in experiment [3], 43.9 µM; in experiment [4] it was 36.6 µM. The “induction of apoptosis” value in the experiment on HCT-116 cells (HCT-116, 6 hours of incubation) was “significantly higher levels of apoptosis”; in the experiment on HCT-116 cells (setting [5]), “significantly superior to that of both M2 and M13”; in the experiment on H-1299 cells, “significantly superior to that of both M2 and M13”.
